Data as given in US10537725B2, “Ultrasound-assisted convection enhanced delivery of compounds in vivo with a transducer cannula assembly” (CORNELL UNIVERSITY, priority 2010, dated 2020).

Assay: Evans blue dye volume distribution in rat brain after CED or ultrasound-assisted CED (UCED) infusion into the caudate
Assay type: in vivo, Sprague-Dawley rats
Details: for total distribution volume of EBD: 30 min
Procedure: A total of 40 Sprague-Dawley rats (350 to 450 g) were divided into two equal groups and further divided into four equal subgroups (n=5 in each). The rats were anesthetized, secured into ear bars on a stereotaxic apparatus, and a craniotomy was performed. The caudate of the rat brain was infused with 0.25 wt % Evans blue dye (EBD) in Phosphate-Buffered Saline (PBS) at two different infusion rates of 0.25 μL/min for group 1, and 0.5 μL/min for group 2. […] Using the TCA without ultrasound, the four control subgroups were infused without and with microbubbles (CED and CED+MB). The four UCED subgroups (UCED and UCED+MB) followed the same protocol with the addition of simultaneous continuous wave 1.34 MHz ultrasound operating at a total acoustic power of 0.11+/−0.005 W and peak spatial intensity at the cannula tip of I=49.7 mW/cm^2. Frozen sectioning and histology were performed on the brains, and infusion distribution was three-dimensionally reconstructed using MatLab® analysis. Hematoxylin and Eosin (H&E) staining was used to assess tissue damage and morphological changes to the brain. The application of UCED and UCED+MB improved EBD total volumetric distribution by 2.24 to 3.25 and 1.16 to 1.70 times, respectively (p<0.001). On gross and histological examination, no ultrasound or microbubble related damage to the brain tissue was found. The TCA and battery-powered ultrasound device show promise to improve the distribution of infusate during CED in clinical practice.
Rats were anesthetized and euthanized by procedures approved by the Institutional Animal Care and Use Committee (IACUC) at Cornell University. A total of 40 Sprague-Dawley rats (350 to 450 g) were divided into two groups (designated Groups 1 and 2) with four subgroups (5 rats in each subgroup). Animals were anesthetized by inhalation of isoflurane gas and secured in a stereotaxic frame. The head was shaved, 0.5 ml of bupivicaine was applied under the skin as a local anesthetic and an incision was made in the skin along the dorsal midline of the skull. A small craniotomy (6-7 mm diameter) was made over the left side of the exposed skull using a dental drill. The TCA was guided using a micromanipulator to +0 mm anterior, +3 mm lateral and −5.5 mm ventral from bregma, lowered at 0.25 mm per second into the caudate of the rat brain and allowed to equilibrate for two minutes. 1-2 ml of artificial cerebral spinal fluid (aCSF) and a gel-foam dam was used to couple acoustic energy from the face of the TCA into the rodent brain. The TCA was powered on with the pocket-sized ultrasound system at the +/−11.1 V setting and infusion began.
For each rat, the entire experiment lasted a total of 30 min. The control subgroups of CED and CED+MB (n=5 in each) were infused using the TCA with no ultrasound therapy for 30 min. For the experimental subgroups of UCED and UCED+MB (n=5 in each), infusion and ultrasound exposure at an acoustic power of 0.11+/−0.005 W, and TCA face intensity of 0.095 W/cm^2 which corresponded to a cannula tip intensity of 0.0497 W/cm^2 for 30 min was applied simultaneously. Filtered Evan's blue dye (EBD) 0.25 wt % in phosphate buffered saline (PBS) without or with 5×10^5 stabilized microbubbles per μL with median diameter of 2.5 μm (Targestar™-P, Targeson Inc.) was infused using a microinfusion pump (Worker Bee™, Bioanalytical Systems, Inc.).
The starting infusion flow rate for the experiments of Group 1 was 0.05 μL/min for 5 min; the infusion flow rate was then increased to 0.1 μL/min for an additional 5 min, to a final flow rate of 0.25 μL/min for 20 min. The starting infusion flow rate of Group 2 was 0.1 μL/min for 5 min; the infusion flow rate was then increased to 0.25 μL/min for an additional 5 min, to a final flow rate of 0.5 μL/min for 20 min.
After 30 min of simultaneous infusion and ultrasound therapy the experiment was stopped. The TCA was left in the tissue for 1-2 min before being removed while euthanasia via cardiac urethane injection was performed. […]

total distribution volume of EBD (group 1, 0.25 μL/min infusion, left caudate, CED): 13.6 mm^3 | total distribution volume of EBD (group 1, 0.25 μL/min infusion, left caudate, CED+MB): 15.9 mm^3 | total distribution volume of EBD (group 1, 0.25 μL/min infusion, left caudate, UCED): 33.1 mm^3 | total distribution volume of EBD (group 1, 0.25 μL/min infusion, left caudate, UCED+MB): 27.0 mm^3 | total distribution volume of EBD (group 1, 0.25 μL/min infusion, left hemisphere, CED (no ultrasound)): 20.6 mm^3 | total distribution volume of EBD (group 1, 0.25 μL/min infusion, left hemisphere, CED+MB (microbubbles, no ultrasound)): 19.7 mm^3 | total distribution volume of EBD (group 1, 0.25 μL/min infusion, left hemisphere, UCED (1.34 MHz ultrasound)): 46.3 mm^3 | total distribution volume of EBD (group 1, 0.25 μL/min infusion, left hemisphere, UCED+MB): 26.9 mm^3 | increase of EBD distribution volume (group 1, 0.25 μL/min, left caudate, UCED compared to CED): 2.44 × | increase of EBD distribution volume (group 1, 0.25 μL/min, left caudate, UCED+MB compared to CED+MB): 1.7 × | increase of EBD distribution volume (group 1, 0.25 μL/min, left hemisphere, UCED compared to CED): 2.24 × | increase of EBD distribution volume (group 1, 0.25 μL/min, left hemisphere, UCED+MB compared to CED+MB): 1.37 × | total distribution volume of EBD (group 2, 0.5 μL/min infusion, left caudate, UCED): 70.2 mm^3 | total distribution volume of EBD (group 2, 0.5 μL/min infusion, left caudate, UCED+MB): 30.2 mm^3 | total distribution volume of EBD (group 2, 0.5 μL/min infusion, left hemisphere, CED): 37.4 mm^3 | total distribution volume of EBD (group 2, 0.5 μL/min infusion, left hemisphere, CED+MB): 31.9 mm^3 | total distribution volume of EBD (group 2, 0.5 μL/min infusion, left hemisphere, UCED): 111 mm^3 | total distribution volume of EBD (group 2, 0.5 μL/min infusion, left hemisphere, UCED+MB): 37.1 mm^3 | increase of EBD distribution volume (group 2, 0.5 μL/min, left caudate, UCED compared to CED): 3.25 × | increase of EBD distribution volume (group 2, 0.5 μL/min, left caudate, UCED+MB compared to CED+MB): 1.54 × | increase of EBD distribution volume (group 2, 0.5 μL/min, left hemisphere, UCED compared to CED): 2.96 × | increase of EBD distribution volume (group 2, 0.5 μL/min, left hemisphere, UCED+MB compared to CED+MB): 1.16 ×
SMILES: Cc1cc(-c2ccc(/N=N/c3ccc4c(S(=O)(=O)O)cc(S(=O)(=O)O)c(N)c4c3O)c(C)c2)ccc1/N=N/c1ccc2c(S(=O)(=O)O)cc(S(=O)(=O)O)c(N)c2c1O [EBD, Evans blue dye]
